Data published in patent US10758534B2 (Vertex Pharmaceuticals Incorporated, priority 2014, dated 2020).

What follows are molecules tested against T1, F508del (Homo sapiens, UniProt P13569, DEL508-508) (assay: Protocol 2: FRET membrane potential optical assay (VIPR), identification of correction compounds). Conditions: F508del CFTR modulator activity; compounds of Table 1; read-out: EC30.
T1 construct: expressed in transfected cells
Format: cell-based
Outline: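 Corrector readout: membrane-potential FRET (CC2-DMPE donor, DiSBAC2(3) acceptor) on VIPR II after Cl⁻-free gluconate bath with 10 μM forskolin and 20 μM genistein. Before this, F508del-expressing NIH3T3 cells were exposed to test compound for 16 h at 37 °C without serum; 27 °C incubation served as temperature-correction control.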

T1 sequence (P13569 with tags, fused parts or gaps DEL508-508): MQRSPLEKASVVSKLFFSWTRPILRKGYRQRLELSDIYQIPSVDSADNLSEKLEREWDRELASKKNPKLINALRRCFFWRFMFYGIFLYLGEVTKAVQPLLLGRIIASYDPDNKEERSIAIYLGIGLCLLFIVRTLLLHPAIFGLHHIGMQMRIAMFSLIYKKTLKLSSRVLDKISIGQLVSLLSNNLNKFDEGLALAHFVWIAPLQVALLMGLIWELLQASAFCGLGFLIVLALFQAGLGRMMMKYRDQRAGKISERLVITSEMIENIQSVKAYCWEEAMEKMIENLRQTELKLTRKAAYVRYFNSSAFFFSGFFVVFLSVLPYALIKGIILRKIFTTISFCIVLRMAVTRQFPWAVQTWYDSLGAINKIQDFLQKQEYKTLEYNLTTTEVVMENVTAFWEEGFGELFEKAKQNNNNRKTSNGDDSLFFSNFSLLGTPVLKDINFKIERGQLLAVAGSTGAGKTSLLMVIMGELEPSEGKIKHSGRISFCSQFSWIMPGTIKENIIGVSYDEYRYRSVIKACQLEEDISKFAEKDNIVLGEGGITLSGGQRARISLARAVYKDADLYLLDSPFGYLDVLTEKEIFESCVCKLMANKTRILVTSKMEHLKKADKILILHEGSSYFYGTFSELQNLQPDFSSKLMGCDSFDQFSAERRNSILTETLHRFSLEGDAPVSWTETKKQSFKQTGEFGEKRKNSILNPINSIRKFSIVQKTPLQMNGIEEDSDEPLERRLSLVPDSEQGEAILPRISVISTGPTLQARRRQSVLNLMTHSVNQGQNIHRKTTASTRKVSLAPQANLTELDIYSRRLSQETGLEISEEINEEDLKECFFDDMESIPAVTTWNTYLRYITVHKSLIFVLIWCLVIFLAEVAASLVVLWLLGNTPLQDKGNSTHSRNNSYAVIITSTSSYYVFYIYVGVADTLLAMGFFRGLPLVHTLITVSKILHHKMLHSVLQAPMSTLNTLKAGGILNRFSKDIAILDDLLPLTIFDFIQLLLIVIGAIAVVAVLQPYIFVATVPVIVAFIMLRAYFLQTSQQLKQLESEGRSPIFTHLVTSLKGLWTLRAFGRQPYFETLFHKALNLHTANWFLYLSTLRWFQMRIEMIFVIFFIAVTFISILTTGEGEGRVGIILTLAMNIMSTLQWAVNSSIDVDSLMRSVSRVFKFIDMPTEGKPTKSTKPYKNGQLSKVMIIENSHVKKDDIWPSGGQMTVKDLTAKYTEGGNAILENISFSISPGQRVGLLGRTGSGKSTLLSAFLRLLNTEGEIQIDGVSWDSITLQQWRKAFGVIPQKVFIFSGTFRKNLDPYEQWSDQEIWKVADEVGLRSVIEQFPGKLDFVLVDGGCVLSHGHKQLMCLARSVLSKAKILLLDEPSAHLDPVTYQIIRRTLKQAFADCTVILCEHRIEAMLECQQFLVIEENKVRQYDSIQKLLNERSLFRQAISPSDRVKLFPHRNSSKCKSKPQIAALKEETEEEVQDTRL

SMILES | EC30 [nM]
Cc1cc(-c2ccc(C(=O)NS(=O)(=O)c3ccc[nH]c3=O)c(N3C[C@@H](C)CC3(C)C)n2)ccc1F [Compound 2456, 6-(4-fluoro-3-methyl-phenyl)-N-[(2-oxo-1H-pyridin-3-yl)sulfonyl]-2-[(4S)-2,2,4-trimethylpyrrolidin-1-yl]pyridine-3-carboxamide] | < 3000
CC1CN(c2ncccc2C(=O)NS(=O)(=O)c2cccc(OCC3OCc4ccccc4O3)n2)C(C)(C)C1 (stereo not shown) [Compound 2627, N—[[6-(4H-1,3-benzodioxin-2-ylmethoxy)-2-pyridyl]sulfonyl]-2-(2,2,4-trimethylpyrrolidin-1-yl)pyridine-3-carboxamide] | < 3000
CC1CN(c2ncccc2C(=O)NS(=O)(=O)c2cccc(Nc3ccc(F)c(C#N)c3)n2)C(C)(C)C1 (stereo not shown) [Compound 2316, N—[[6-(3-cyano-4-fluoro-anilino)-2-pyridyl]sulfonyl]-2-(2,2,4-trimethylpyrrolidin-1-yl)pyridine-3-carboxamide] | < 3000
COc1ccc(Nc2cccc(S(=O)(=O)NC(=O)c3cccnc3N3CC(C)CC3(C)C)n2)cc1OC (stereo not shown) [Compound 2041, N—[[6-(3,4-dimethoxyanilino)-2-pyridyl]sulfonyl]-2-(2,2,4-trimethylpyrrolidin-1-yl)pyridine-3-carboxamide] | < 3000
CC1CN(c2ncccc2C(=O)NS(=O)(=O)c2cccc(NCc3ccco3)n2)C(C)(C)C1 (stereo not shown) [Compound 2597, N—[[6-(2-furylmethylamino)-2-pyridyl]sulfonyl]-2-(2,2,4-trimethylpyrrolidin-1-yl)pyridine-3-carboxamide] | 3000 to 10000
C[C@@H]1CN(c2nc(-c3ccccc3)ccc2C(=O)NS(=O)(=O)c2ccc[nH]c2=O)C(C)(C)C1 [Compound 2445, N-[(2-oxo-1H-pyridin-3-yl)sulfonyl]-6-phenyl-2-[(4S)-2,2,4-trimethylpyrrolidin-1-yl]pyridine-3-carboxamide] | < 3000
CCOCCOCCOc1ccc(C(=O)NS(=O)(=O)c2cccnc2N)c(N2C[C@@H](C)CC2(C)C)n1 [Compound 2700] | < 3000
CC(C)COc1cc(F)cc(-c2nc(N3C[C@@H](C)CC3(C)C)cnc2C(=O)NS(=O)(=O)c2cccc(N)n2)c1 [Compound 2673, N-[(6-amino-2-pyridyl)sulfonyl]-3-(3-fluoro-5-isobutoxy-phenyl)-5-[(4S)-2,2,4-trimethylpyrrolidin-1-yl]pyrazine-2-carboxamide] | < 3000
CC(C)Cn1ccc(-c2ccc(C(=O)NS(=O)(=O)c3cccc(N)n3)c(N3C[C@@H](C)CC3(C)C)n2)n1 [Compound 2114, N-[(6-amino-2-pyridyl)sulfonyl]-6-(1-isobutylpyrazol-3-yl)-2-[(4S)-2,2,4-trimethylpyrrolidin-1-yl]pyridine-3-carboxamide] | < 3000
COc1ccc(Nc2cccc(S(=O)(=O)NC(=O)c3cccnc3N3CC(C)CC3(C)C)n2)cc1Cl (stereo not shown) [Compound 2571, N—[[6-(3-chloro-4-methoxy-anilino)-2-pyridyl]sulfonyl]-2-(2,24-trimethylpyrrolidin-1-yl)pyridine-3-carboxamide] | < 3000
C[C@@H]1CN(c2nc3ccccc3cc2C(=O)NS(=O)(=O)c2cccc(N)n2)C(C)(C)C1 [Compound 2265, N-[(6-amino-2-pyridyl)sulfonyl]-2-[(4S)-2,2,4-trimethylpyrrolidin-1-yl]quinoline-3-carboxamide] | < 3000
C[C@@H]1CN(c2nc(-c3cnc(N(C)C)nc3)ccc2C(=O)NS(=O)(=O)c2cccnc2N)C(C)(C)C1 [Compound 2021, N-[(2-amino-3-pyridyl)sulfonyl]-6-[2-(dimethylamino)pyrimidin-5-yl]-2-[(4S)-2,2,4-trimethylpyrrolidin-1-yl]pyridine-3-carboxamide] | 3000 to 10000
CC(C)c1ccccc1-c1ccc(C(=O)NS(=O)(=O)c2cccnc2N)c(N2C[C@@H](C)CC2(C)C)n1 [Compound 2172, N-[(2-amino-3-pyridyl)sulfonyl]-6-(2-isopropylphenyl)-2-[(4S)-2,2,4-trimethylpyrrolidin-1-yl]pyridine-3-carboxamide] | < 3000

Same assay, conditions: Table 3; compounds of Table 1 as modulators of CFTR activity; protocol not stated

SMILES | EC30
Cc1cc(C)c(CN2Cc3ccccc3[C@@H]2C(=O)NS(=O)(=O)c2cccc(N)c2)c(C)c1 [Compound 310, (1R)—N-(3-aminophenyl)sulfonyl-2-[(2,4,6-trimethylphenyl)methyl]isoindoline-1-carboxamide] | +++ (“+++” means <3 uM)
CC(C)COc1cccc(-c2ccc(C(=O)NS(=O)(=O)c3cccc(N)n3)c(N3CC(C)CC3(C)C)n2)c1 (stereo not shown) [Compound 695, N-[(6-amino-2-pyridyl)sulfonyl]-6-(3-isobutoxyphenyl)-2-(2,2,4-trimethylpyrrolidin-1-yl)pyridine-3-carboxamide] | +++ (“+++” means <3 uM)
COc1ccc(-c2ccc(C(=O)NS(=O)(=O)c3cccc(N)n3)c(N3[C@H](C)CC[C@@H]3C)n2)cn1 [Compound 726, N-[(6-amino-2-pyridyl)sulfonyl]-2-[(2S,5R)-2,5-dimethylpyrrolidin-1-yl]-6-(6-methoxy-3-pyridyl)pyridine-3-carboxamide] | ++ (“++” means between 3 uM and 10 uM)
Cc1ccc(-c2nc(C(C)(C)C)ccc2C(=O)NS(=O)(=O)c2ccccn2)cc1 [Compound 407, 6-tert-butyl-2-(p-tolyl)-N-(2-pyridylsulfonyl)pyridine-3-carboxamide] | ++ (“++” means between 3 uM and 10 uM)
Cc1cc(C)c(Oc2nc(C(C)(C)C)ccc2C(=O)NS(=O)(=O)c2cccc(N)n2)c(C#N)c1 [Compound 767, N-[(6-amino-2-pyridyl)sulfonyl]-6-tert-butyl-2-(2-cyano-4,6-dimethyl-phenoxy)pyridine-3-carboxamide] | +++ (“+++” means <3 uM)
CCOc1ccc(-c2ccc(C(=O)NS(=O)(=O)c3cccc(N)n3)c(N3CC(C)CC3(C)C)n2)c(C)c1 (stereo not shown) [Compound 536, N-[(6-amino-2-pyridyl)sulfonyl]-6-(4-ethoxy-2-methyl-phenyl)-2-(2,2,4-trimethylpyrrolidin-1-yl)pyridine-3-carboxamide] | +++ (“+++” means <3 uM)
CC(C)COc1cc(F)cc(-c2ccc(C(=O)NS(=O)(=O)c3ccn[nH]3)c(N3CCC[C@@H](C)C3)n2)c1 [Compound 668, 6-(3-fluoro-5-isobutoxy-phenyl)-2-[(3R)-3-methyl-1-piperidyl]-N-(1H-pyrazol-5-ylsulfonyl)pyridine-3-carboxamide] | +++ (“+++” means <3 uM)
Cc1cc(C)c(Cn2nc(C(C)(C)C)cc2C(=O)NS(=O)(=O)c2ccccc2C#N)c(C)c1 [Compound 266, 5-tert-butyl-N-(2-cyanophenyl)sulfonyl-2-[(2,4,6-trimethylphenyl)methyl]pyrazole-3-carboxamide] | +++ (“+++” means <3 uM)
COc1cc(F)ccc1-c1ccc(C(=O)NS(=O)(=O)c2cc[nH]n2)c(Oc2c(C)cc(C)cc2C)n1 [Compound 405, 6-(4-fluoro-2-methoxy-phenyl)-N-(1H-pyrazol-3-ylsulfonyl)-2-(2,4,6-trimethylphenoxy)pyridine-3-carboxamide] | +++ (“+++” means <3 uM)
CC(Oc1nc(C(C)(C)C)ccc1C(=O)NS(=O)(=O)c1cccc(N)c1)c1ccccc1 (stereo not shown) [Compound 219, N-(3-aminophenyl)sulfonyl-6-tert-butyl-2-(1-phenylethoxy)pyridine-3-carboxamide] | +++ (“+++” means <3 uM)
CC(C)Oc1ccc(-c2nc(N3[C@H](C)CC[C@@H]3C)c(C(=O)NS(=O)(=O)c3cccc(N)n3)cc2Br)cn1 [Compound 390, N-[(6-amino-2-pyridyl)sulfonyl]-5-bromo-2-[(2S,5R)-2,5-dimethylpyrrolidin-1-yl]-6-(6-isopropoxy-3-pyridyl)pyridine-3-carboxamide] | +++ (“+++” means <3 uM)
Cc1cc(C)c(Cn2c(C(=O)NS(=O)(=O)c3cccc(N)c3)cc3c(Cl)cccc32)c(C)c1 [Compound 362, N-(3-aminophenyl)sulfonyl-4-chloro-1-[(2,4,6-trimethylphenyl)methyl]indole-2-carboxamide] | +++ (“+++” means <3 uM)
Cc1cccc(C)c1Cn1nc(C(C)(C)C)cc1C(=O)NS(=O)(=O)c1cccc2c1OCC2 [Compound 211, 5-tert-butyl-N-(2,3-dihydrobenzofuran-7-ylsulfonyl)-2-[(2,6-dimethylphenyl)methyl]pyrazole-3-carboxamide] | ++ (“++” means between 3 uM and 10 uM)
Cc1cccc(C)c1Oc1nc(C(F)(F)F)ccc1C(=O)NS(=O)(=O)c1cccc(N)c1 [Compound 243, N-(3-aminophenyl)sulfonyl-2-(2,6-dimethylphenoxy)-6-(trifluoromethyl)pyridine-3-carboxamide] | +++ (“+++” means <3 uM)
Cc1cccc(C)c1Cn1nc(-c2ccccc2C(F)(F)F)cc1C(=O)NS(=O)(=O)c1ccccc1 [Compound 369, N-(benzenesulfonyl)-2-[(2,6-dimethylphenyl)methyl]-5-[2-(trifluoromethyl)phenyl]pyrazole-3-carboxamide] | +++ (“+++” means <3 uM)
CC(C)COc1ccc(-c2ccc(C(=O)NS(=O)(=O)c3cccc(N)n3)c(N3CC(C)CC3(C)C)n2)cc1 (stereo not shown) [Compound 440, N-[(6-amino-2-pyridyl)sulfonyl]-6-(4-isobutoxyphenyl)-2-(2,2,4-trimethylpyrrolidin-1-yl)pyridine-3-carboxamide] | +++ (“+++” means <3 uM)
COc1ccc(F)c(-c2ccc(C(=O)NS(=O)(=O)c3ccc[nH]c3=O)c(Oc3c(C)cc(C)cc3C)n2)c1 [Compound 762, 6-(2-fluoro-5-methoxy-phenyl)-N-[(2-oxo-1H-pyridin-3-yl)sulfonyl]-2-(2,4,6-trimethylphenoxy)pyridine-3-carboxamide] | ++ (“++” means between 3 uM and 10 uM)
CC(C)Oc1ccc(-c2ccc(C(=O)NS(=O)(=O)c3cccc(N)n3)c(N(C)CC3CC3)n2)cn1 [Compound 740, N-[(6-amino-2-pyridyl)sulfonyl]-2-[cyclopropylmethyl(methyl)amino]-6-(6-isopropoxy-3-pyridyl)pyridine-3-carboxamide] | ++ (“++” means between 3 uM and 10 uM)
